{"source": "patent US20030170606A1", "about": "“High-throughput screening assays for modulators of mitochondrial membrane potential” (priority 1999, published 2003)", "test_system": "UCP1", "test": "DiSC3 fluorescence assay in permeabilized UCP1-expressing yeast cells (YUCP)", "type": "cell-based", "experimental": "To make the cells permeable to externally added compounds, the yeast cells were treated with zymolyase. The spheroplasts were cultured in full media for 0.5 hours and pelleted. The pellets were resuspended in a lysis buffer and stored at about −80° C. The permeabilized cells can be kept in this way for at least one half year without loss of activity.\nTo assess the effects of known modulators of uncoupling activity and of uncoupling protein activity, the following fluorescence intensity measurements were carried out: Permeabilized cells were combined with the fluorescent dye DiSC3 in buffer and incubated for about 5-60 min., usually less than about 30 min. The resulting fluorescence intensity (λexc=620 nm, λem=670 nm) corresponded to the basal ΔΨm. The mitochondria accumulate the fluorescent dye into the matrix in proportion to the ΔΨm, and at basal ΔΨm, the DiSC3 fluorescence is substantially quenched.\nA Beckman Multimek™ 96 Automated 96-channel Pipettor was programmed to mix test compounds from master plates with the buffer containing freshly premixed permeabilized cells (0.1 OD) and DiSC3 (0.1 μM) and transfer this mixture to black 96-well plates. An LJL analyst was used in the fluorescence intensity mode to measure the DiSC3 fluorescence. […] A total of about 3,300 compounds were screened in this way to test the feasibility of this method.\nData are presented in FIG. 7B after transformation of the fluorescence data according to (Fcompd/Fcontrol−1), where Fcompd is the fluorescence intensity of a given well (as shown in FIG. 7A), and Fcontrol is the basal fluorescence obtained as an average intensity in column 1 where no compound was added (instead an equivalent volume of dimethyl sulfoxide (DMSO) was added).", "data": [{"smiles": "CCCCCCCCCCCCCCC(Br)C(=O)O", "note": "(stereo not shown) [BrPalm, 2-bromo-palmitate]", "values": [{"measurement": "DiSC3 fluorescence level upon addition of compound", "setting": "5 to 10 μM", "value": "higher fluorescence level"}]}, {"smiles": "N#CC(C#N)=NNc1ccc(Cl)cc1", "note": "[CCCP, carbonyl-cyanide p-chlorophenylhydrazone]", "values": [{"measurement": "DiSC3 fluorescence level upon addition of compound", "setting": "1 μM", "value": "fluorescence reaches a maximum level"}]}, {"smiles": "Nc1nc2c(ncn2[C@@H]2O[C@H](COP(=O)(O)OP(=O)(O)O)[C@@H](O)[C@H]2O)c(=O)[nH]1", "note": "[GDP]", "values": [{"measurement": "DiSC3 fluorescence level upon addition of compound", "setting": "100 μM added in the presence of BrPalm", "value": "reverted back to the level close to basal intensity"}]}, {"smiles": "[Cl-].[K+]", "note": "[KCl]", "values": [{"measurement": "change in DiSC3 fluorescence intensity (plasma membrane potential control)", "setting": "0 to 125 mM", "value": "no change in fluorescence intensity"}]}]}
